Reference: patent US20140194528A1, “USAGE OF SODIUM HOUTTUYFONATE ON INHIBITING IDIOPATHIC PULMONARY FIBROSIS AND BLEOMYCIN INDUCED PULMONARY FIBROSIS” (Hong Kong Baptist University, priority 2013, published 2014)

How the values were obtained:
[1] = tested on: BLM induced pulmonary fibrosis mice model; experiment: Bleomycin (BLM) induced pulmonary fibrosis mice model, treatment with SH or PA; format: in vivo, Kunming mice; conditions: for lung inflammatory cell infiltration and collagen deposition (H&E staining): 7th, SH both high (90 mg/kg) and low (45 mg/kg) concentrations (FIG. 2); for lung inflammatory cell infiltration and collagen deposition (H&E staining) / lung/body weight ratio: 14th and 28th day; for lung/body weight ratio: SH oral once a day, p<0.05 / p<0.01 vs BLM group (FIG. 1); for hydroxyproline production in lung tissue: 28th day samples, p<0.05 / p<0.01 vs BLM group (FIG. 3C); for deposition of collagens (Sirius Red staining, polarized light): all sample collection time points (7th, 14th, 28th day), SH 90 and 45 mg/kg (FIG. 3A); for collagen I/III ratio: all time points (FIG. 3B)
Method: Kunming mice were obtained from Shanghai Experimental Animal Center, Chinese Academy of Sciences. The animals were housed in stainless steel metabolite cages and observed under a 12 hours light-12 hours dark cycle in a well-ventilated room at 23° C±2° C. They were fed with standard pellet food and tap water ad libitum. The study was approved by the Animal Care and Use Committee of Shanghai University of Traditional Chinese Medicine, and was performed in accordance with the National Institute of Health guidelines for the care and handling of animals.
One hundred and twenty mice (male, 8 weeks old, 18-22 g) were randomly divided into the following 5 groups: sham control operation group (Control); BLM treatment group (BLM); prednisone acetate treatment group (BLM+PA); high concentration SH treatment group (BLM+SH High); and low concentration SH treatment group (BLM+SH Low). In the control group, mice received 1 ml/kg 0.9% sterile saline intratracheally under pentobarbital sodium anesthesia. In the BLM group, mice received a single dose of BLM intratracheally (5 mg in 1 ml sterile saline/body weight (kg)). The control and BLM groups received saline (oral, 5 ml/body weight (kg)) once a day for 4 weeks after BLM injection. We selected the doses of SH based on our previous report and small-scale preliminary experiments. We employed two different administration concentrations. SH was administered orally once a day to both the high (90 mg/kg) and low (45 mg/kg) concentration SH groups. On the 7th, 14th or 28th day, the mice were anesthetized with pentobarbital sodium (50 mg/kg) intraperitoneally.
The lungs were immersed in buffered formalin (10%) for 48 h, then embedded in paraffin and sliced (5 μm) and stained with H&E, or Sirius red. Each sample slice was photographed (x200 magnification) under the microscope (Olympus BX51, 167 Japan). All photos were analyzed with the image-Pro Plus 6.3 analyzing software (Media Cybernetics, Bethesda, Md. USA) by computer. Type I and type III collagen accumulation in the interstitial space of the lung was assessed by polarized light microscopy. Type I or type III collagen volume fraction (CVF) was also determined with Image-Pro 6.3 analyzing software.
All values were expressed as mean±standard deviation (SD). Statistical analysis was performed by one-way analysis of variance for multiple comparisons, followed by Student-Newman-Keuls test to evaluate the difference between two groups. Values of p<0.05 were considered statistically significant for all analyses.

[2] = tested on: mice lung; experiment: Small-scale preliminary experiments with two dosages of BLM in mice; format: in vivo
Method: Two different dosages of BLM (2.5 mg/kg, 5mg/kg) were given to 10 mice (5 mice for each group) for small-scale preliminary experiments. On the 7th and 14th day, the mice were anesthetized with pentobarbital sodium (50 mg/kg) intraperitoneally. […]. […] Therefore, 5 mg of BLM in 2.5 ml sterile saline/body weight (kg) was used to generate BLM induced pulmonary fibrosis mice model. In the BLM group, mice received a single dose of BLM. After the instillation of saline or BLM, the lung/body weight ratio were obtained on the 7th, 14th, and 28th day. […] Both PA and SH reduced the lung/body weight ratio on the 14th and 28th day in BLM mice (*p<0.05, **p<0.01). Meanwhile, there was no significant difference in body weight among all groups.

Row | Compound | lung inflammatory cell infiltration and collagen deposition (H&E staining) ([1]; BLM mice) | lung/body weight ratio ([1]; BLM mice) | hydroxyproline production in lung tissue ([1]; BLM mice) | deposition of collagens (Sirius Red staining, polarized light) ([1]; BLM mice) | collagen I/III ratio ([1]; BLM+PH group) | cytokine (IL-1β, IL-6 and TNF-α) production in lung tissues ([1]; BLM mice) | body weight ([1]; BLM mice, higher dose of SH) | collagen I/III ratio ([1]; BLM+SH High (90 mg/kg)) | collagen I/III ratio ([1]; BLM+SH Low (45 mg/kg)) | pathological change of lung ([2]; BLM 2.5 mg/kg, 7th and 14th day (data not shown)) | death ([2]; BLM 5 mg/kg) | lung tissue histological examination ([2]; BLM 5 mg/kg, 7th and 14th day)
1 | CC(=O)OCC(=O)[C@@]1(O)CC[C@H]2[C@@H]3CCC4=CC(=O)C=C[C@]4(C)[C@H]3C(=O)C[C@@]21C [PA, prednisone acetate] | reduced | reduced | suppressed | reduced | low collagen I/III ratios |  |  |  |  |  |  | 
2 | CCCCCCCCCC(=O)CC(O)S(=O)(=O)O (stereo not shown) [SH, Sodium Houttuyfonate] | reduced | reduced | suppressed | reduced |  | inhibit | without adversely affecting the body weight | low collagen I/III ratios | low collagen I/III ratios |  |  | 
3 | Bleomycin [BLM] |  |  |  |  |  |  |  |  |  | not significant | no death | showed the fibrotic morphology
